target: T1, Human P2Y12 receptor (Homo sapiens, UniProt Q9H244); assay: Human P2Y12 receptor cell membrane binding assay with [3H] 2-Mes-ADP; conditions: 1 nM [3H] 2-Mes-ADP, membranes of HEK cells expressing P2Y12 receptor; read-out: Binding activity (IC50)
T1 construct: expressed in transfected cells; host or cells: HEK cells
Protocol: Human P2Y12 Receptor Cell Membrane Binding Assay with [^3H] 2-Mes-ADP
Whether test compounds bind to P2Y12 receptor is measured by [3H]-2MesADP binding in HEK cells expressing P2Y12 receptor. The efficacy according to the amount of test compound can be known through the above test, competitive binding test to P2Y12 receptor, in which the binding material (2-Mes-ADP) is labeled with radioactivity isotope and then the extent of inhibition against the binding of radioactively labeled material is measured.
Preparation of P2Y12 Membrane Protein Fraction
Harvested P2Y12 cells were resuspended with Hypotonic buffer (10 mM HEPES, 10 mM NaCl, 1 mM EDTA, 1 mM EGTA pH 7.4) containing protease inhibitor cocktail. Following the incubation on ice for 15 min, cells were homogenized on ice (Glass/Teflon homogenizer; 1,000 rpm, 10 strokes). The supernant was taken from centrifugation at 500×g for 15 min and then recentrifuged the supernant at 30,000 rpm for 30 min. The membrane pellet was adjusted to 1 mg/mL concentration and stored at −80° C.
P2Y12 Receptor Cell Membrane Binding Assay with [3H] 2-Mes-ADP
The volume of 100 μL of 200 μg membrane protein was aliquoted into 96 well plate. 50 μL volume of test compounds and [^3H] 2-Mes-ADP (final: 1 nM) were added into each well. The total reaction of 0.2 ml/well was incubated for 1 hour at R.T. The reaction was terminated by filtration through GF/B filter using a 96-well cell harvester. […] Radioactivity bound to P2Y12 receptor membrane was counted in a scintillation counter. Total binding was determined with CPM of test group having no compound and non-specific binding was determined with CPM of test group containing 10 μM 2-Mes-ADP. Binding inhibition percent was calculated as follows: [100−(specific binding in the presence of test material/specific binding in the absence of test material×100)].

T1 sequence (Q9H244 whole entry): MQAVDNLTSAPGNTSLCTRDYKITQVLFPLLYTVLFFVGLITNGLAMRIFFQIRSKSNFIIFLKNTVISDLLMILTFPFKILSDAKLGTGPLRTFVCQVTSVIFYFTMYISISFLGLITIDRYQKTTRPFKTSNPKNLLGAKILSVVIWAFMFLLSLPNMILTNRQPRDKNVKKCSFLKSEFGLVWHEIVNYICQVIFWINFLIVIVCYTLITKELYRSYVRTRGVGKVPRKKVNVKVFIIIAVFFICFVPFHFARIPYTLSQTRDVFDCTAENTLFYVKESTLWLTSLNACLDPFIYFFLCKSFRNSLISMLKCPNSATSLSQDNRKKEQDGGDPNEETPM

IC50 [nM] | SMILES
1100 | Cc1cc2c(N3CCn4c(nnc4C(F)(F)F)C3)nc(N3CCNC(=O)C3)nc2s1 [Example 2-1, 4-[6-Methyl-4-(3-trifluoromethyl-5,6-dihydro-8H-[1,2,4]triazolo[4,3-a]pyrazin-7-yl)-thieno[2,3-d]pyrimidin-2-yl]-piperazin-2-one]
14500 | CCc1cc2c(N3CCn4ccnc4C3)nc(OCC(O)CO)nc2s1 (stereo not shown) [Example 6-21, 3-[4-(5,6-Dihydro-8H-imidazo[1,2-a]pyrazin-7-yl)-6-ethyl-thieno[2,3-d]pyrimidin-2-yloxy]-propane-1,2-diol]
2280 | CCc1cc2c(N3CCn4c(nnc4C(F)(F)F)C3)nc(NCCN)nc2s1 [Example 2-8, N*1*-[6-Ethyl-4-(3-trifluoromethyl-5,6-dihydro-8H-[1,2,4]triazolo[4,3-a]pyrazin-7-yl)-thieno[2,3-d]pyrimidin-2-yl]-ethane-1,2-diamine]
28 | CCCc1cc2c(N3CCn4c(nnc4C(F)(F)F)C3)nc(N3CCc4[nH]ncc4C3)nc2s1 [Example 1-76, 7-[6-Propyl-2-(1,4,6,7-tetrahydro-pyrazolo[4,3-c]pyridin-5-yl)-thieno[2,3-d]pyrimidin-4-yl]-3-trifluoromethyl-5,6,7,8-tetrahydro-[1,2,4]triazolo[4,3-a]pyrazine]
130 | CCCc1cc2c(N3CCn4c(nnc4C(F)(F)F)C3)nc(OC3Cc4ccccc4C3)nc2s1 [Example 3-22, 7-[2-(Indan-2-yloxy)-6-propyl-thieno[2,3-d]pyrimidin-4-yl]-3-trifluoromethyl-5,6,7,8-tetrahydro-[1,2,4]triazolo[4,3-a]pyrazine]
7640 | CCc1cc2c(N3CCn4ccnc4C3)nc(N3CCNC(=O)C3)nc2s1 [Example 6-20, 4-[4-(5,6-Dihydro-8H-imidazo[1,2-a]pyrazin-7-yl)-6-ethyl-thieno[2,3-d]pyrimidin-2-yl]-piperazin-2-one]
7000 | CCc1cc2c(N3CCn4cnnc4C3)nc(N3CCNC(=O)C3)nc2s1 [Example 6-10, 4-[4-(5,6-Dihydro-8H-[1,2,4]triazolo[4,3-a]pyrazin-7-yl)-6-ethyl-thieno[2,3-d]pyrimidin-2-yl]-piperazin-2-one]
2370 | CCCc1cc2c(N3CCc4c(nc(C(F)(F)F)nc4C(F)(F)F)C3)nc(N3CCNC(=O)C3)nc2s1 [Example 6-33, 4-[4-(2,4-Bis-trifluoromethyl-5,8-dihydro-6H-pyrido[3,4-d]pyrimidin-7-yl)-6-propyl-thieno[2,3-d]pyrimidin-2-yl]-piperazin-2-one]
680 | CCc1nc2c(N3CCn4c(nnc4C(F)(F)F)C3)nc(N3CCNC(=O)C3)nc2s1 [Example 5-1, 4-[2-Ethyl-7-(3-trifluoromethyl-5,6-dihydro-8H-[1,2,4]triazolo[4,3-a]pyrazin-7-yl)-thiazolo[5,4-d]pyrimidin-5-yl]-piperazin-2-one]
120 | CCc1cc2c(N3CCc4c(nc(C)nc4C(F)(F)F)C3)nc(N3CCNC(=O)C3)nc2s1 [Example 6-34, 4-[6-Ethyl-4-(2-methyl-4-trifluoromethyl-5,8-dihydro-6H-pyrido[3,4-d]pyrimidin-7-yl)-thieno[2,3-d]pyrimidin-2-yl]-piperazin-2-one]
43 | CCCc1cc2c(N3CCn4c(nnc4C(F)(F)F)C3)nc(N3CCc4c(nc(C)nc4C(F)(F)F)C3)nc2s1 [Example 1-80, 2-Methyl-7-[6-propyl-4-(3-trifluoromethyl-5,6-dihydro-8H-[1,2,4]triazolo[4,3-a]pyrazin-7-yl)-thieno[2,3-d]pyrimidin-2-yl]-4-trifluoromethyl-5,6,7,8-tetrahydro-pyrido[3,4-d]pyrimidine]
1950 | CCc1cc2c(N3CCn4c(nnc4-c4ccccc4)C3)nc(N3CCNC(=O)C3)nc2s1 [Example 6-19, 4-[6-Ethyl-4-(3-phenyl-5,6-dihydro-8H-[1,2,4]triazolo[4,3-a]pyrazin-7-yl)-thieno[2,3-d]pyrimidin-2-yl]-piperazin-2-one]
400 | CCc1cc2c(N3CCc4c(nc(-c5ccccc5)nc4C(F)(F)F)C3)nc(N3CCNC(=O)C3)nc2s1 [Example 6-37, 4-[6-Ethyl-4-(2-phenyl-4-trifluoromethyl-5,8-dihydro-6H-pyrido[3,4-d]pyrimidin-7-yl)-thieno[2,3-d]pyrimidin-2-yl]-piperazin-2-one]
160 | CCCc1cc2c(N3CCn4c(nnc4C(F)(F)F)C3)nc(NCC(O)CO)nc2s1 (stereo not shown) [Example 1-2, 3-[6-Propyl-4-(3-trifluoromethyl-5,6-dihydro-8H-[1,2,4]triazolo[4,3-a]pyrazin-7-yl)-thieno[2,3-d]pyrimidin-2-ylamino]-propane-1,2-diol]
2320 | CCc1nc2c(N3CCn4c(nnc4C(F)(F)F)C3)nc(NCCO)nc2s1 [Example 5-2, 2-[2-Ethyl-7-(3-trifluoromethyl-5,6-dihydro-8H-[1,2,4]triazolo[4,3-a]pyrazin-7-yl)-thiazolo[5,4-d]pyrimidin-5-ylamino]-ethanol]
1580 | CCc1cc2c(N3CCn4c(nnc4C(F)(F)F)C3)nc(C(=O)NCCO)nc2s1 [Example 4-5, 6-Ethyl-4-(3-trifluoromethyl-5,6-dihydro-8H-[1,2,4]triazolo[4,3-a]pyrazin-7-yl)thieno[2,3-d]pyrimidine-2-carboxylic acid (2-hydroxy-ethyl)amide]
10000 | CCc1cc2c(N3CCc4ccccc4C3)nc(N3CCNC(=O)C3)nc2s1 [Example 6-27, 4-[4-(3,4-Dihydro-1H-isoquinolin-2-yl)-6-ethyl-thieno[2,3-d]pyrimidin-2-yl]-piperazin-2-one]
406 | CCc1cc2c(N3CCn4c(nnc4C(F)(F)F)C3)nc(OCC(O)CO)nc2s1 (stereo not shown) [Example 3-49, 3-[6-Ethyl-4-(3-trifluoromethyl-5,6-dihydro-8H-[1,2,4]triazolo[4,3-a]pyrazin-7-yl)-thieno[2,3-d]pyrimidin-2-yloxy]-propane-1,2-diol]
8920 | CCc1cc2c(N3CCn4c(nnc4C(F)(F)F)C3)nc(N[C@@H]3C[C@H](OCCO)[C@@H](O)[C@H]3O)nc2s1 [Example 2-4, (1S,2S,3R,5S)-3-[6-Ethyl-4-(3-trifluoromethyl-5,6-dihydro-8H-[1,2,4]triazolo[4,3-a]pyrazin-7-yl)-thieno[2,3-d]pyrimidin-2-ylamino]-5-(2-hydroxy-ethoxy)-cyclopentane-1,2-diol]
1930 | CCCc1cc2c(N3CCn4c(nnc4C(F)(F)F)C3)nc(Nc3nc(C(=O)OCC)cs3)nc2s1 [Example 1-131, 2-[6-Propyl-4-(3-trifluoromethyl-5,6-dihydro-8H-[1,2,4]triazolo[4,3-a]pyrazin-7-yl)thieno[2,3-d]pyrimidin-2-ylamino]thiazole-4-carboxylic acid ethyl ester]

same assay, conditions: 30 μM compound; 1 nM [3H] 2-Mes-ADP

inhibition at 30 µM [%] | SMILES
38.6 | CCc1cc2c(N3CCc4[nH]ncc4C3)nc(OCC(O)CO)nc2s1 (stereo not shown) [Example 6-25, 3-[6-Ethyl-4-(1,4,6,7-tetrahydro-pyrazolo[4,3-c]pyridin-5-yl)-thieno[2,3-d]pyrimidin-2-yloxy]-propane-1,2-diol]
20 | CCCc1cc2c(N3CCn4c(nnc4C(F)(F)F)C3)nc(Sc3ccccc3)nc2s1 [Example 3-52, 7-(2-Phenylsulfanyl-6-propyl-thieno[2,3-d]pyrimidin-4-yl)-3-trifluoromethyl-5,6,7,8-tetrahydro-[1,2,4]triazolo[4,3-a]pyrazine]

— patent US20110166121A1 (LG LIFE SCIENCES LTD., priority 2008, published 2011)
